The values that follow come from the Kinase Knowledgebase extract (Sharma et al. 2016).

Broadly, the IC50 is the concentration needed to halve the response being measured. A high value points to a need for much substance.

This assay deals with MAPK14 (human) (UniProt Q16539). The assay is described as follows: In vitro Inhibition of VEGF Stimulated MAPK Activation.
MAPK14 (human), sequence (Q16539 whole entry, looked up): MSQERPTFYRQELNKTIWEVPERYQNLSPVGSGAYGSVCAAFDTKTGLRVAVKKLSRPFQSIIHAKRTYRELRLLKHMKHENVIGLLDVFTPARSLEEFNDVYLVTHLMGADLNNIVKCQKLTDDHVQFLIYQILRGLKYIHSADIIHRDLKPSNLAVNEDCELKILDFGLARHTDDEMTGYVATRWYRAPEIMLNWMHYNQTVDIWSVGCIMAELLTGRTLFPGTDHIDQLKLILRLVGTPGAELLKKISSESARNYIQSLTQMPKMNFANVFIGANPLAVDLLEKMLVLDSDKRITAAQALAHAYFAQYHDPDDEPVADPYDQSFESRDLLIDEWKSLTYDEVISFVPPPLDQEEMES
`CCCCNC(=O)Nc1ccc(Oc2ccnc3cc(OC)c(OC)cc23)cc1F` had an IC50 of 5.1 nM.

Consider `C#CCNC(=O)Nc1ccc(Oc2ccnc3cc(OC)c(OC)cc23)cc1F`, for which the IC50 was 5.2 nM.

For the compound `CCCNC(=O)Nc1ccc(Oc2ncnc3cc(OC)c(OC)cc23)cc1`, the IC50 was determined as 42 nM. As to `CCNC(=O)Nc1ccc(Oc2ccnc3cc(OC)c(OC)cc23)cc1F`, the IC50 was 11 nM. With `COc1cc2nccc(Oc3ccc(NC(=O)Nc4ccccn4)c(C)c3C)c2cc1OC`, the IC50 was 3.5 nM.

Compound `C=CCNC(=O)Nc1ccc(Oc2ncnc3cc(OC)c(OC)cc23)cc1` came in with an IC50 of 45 nM. Take `COc1ccc(NC(=O)Nc2ccc(Oc3ccnc4cc(OC)c(OC)cc34)cc2Cl)cc1`: the IC50 was found to be 0.4 nM. The compound `COc1cc2nccc(Oc3ccc(NC(=O)Nc4cccc5ccccc45)c(Cl)c3)c2cc1OC` had an IC50 of 5.4 nM. With `C#CCNC(=O)Nc1ccc(Oc2ncnc3cc(OC)c(OC)cc23)cc1F`, the IC50 was 46 nM.

In turn, `COc1cc2ncnc(Oc3ccc(NC(=O)Nc4ccc(F)cc4)cc3)c2cc1OC` displayed an IC50 of less than 2 nM.

In turn, `COCCOc1cc2nccc(Oc3cc(C)c(NC(=O)Nc4ccccc4OC)cc3C)c2cc1OC` came in with an IC50 of 5.8 nM.

For `COc1cc2c(Oc3cc(C)c(NC(=O)Nc4ccc(F)cc4F)cc3C)ccnc2cc1OCCN1CCOCC1`, the 50% inhibitory concentration (IC50) stood at 4.4 nM.

Compound `CCCNC(=O)Nc1ccc(Oc2ncnc3cc(OC)c(OC)cc23)c(C)c1` yielded an IC50 of 518 nM. Turning to `CCNC(=O)Nc1ccc(Oc2ncnc3cc(OC)c(OC)cc23)cc1`, the IC50 came out at 70 nM.

`COc1cc2nccc(Oc3ccc(NC(=O)Nc4ccc(Cl)cc4C)c(C)c3C)c2cc1OC` came in with an IC50 of 7.3 nM. In turn, `COc1cc2ncnc(Oc3ccc(NC(=O)NCc4ccc(F)cc4F)cc3)c2cc1OC` registered an IC50 of 6800 nM.

In turn, `COc1cc2nccc(Oc3ccc(NC(=O)Nc4ccc(Cl)cn4)c(C)c3C)c2cc1OC` displayed an IC50 of 4 nM. For `CCCNC(=O)Nc1ccc(Oc2ccnc3cc(OC)c(OC)cc23)cc1Cl`, the IC50 worked out at 2.2 nM. In turn, `COc1ccc(NC(=O)Nc2ccc(Oc3ccnc4cc(OC)c(OC)cc34)c(C)c2C)cc1` came in with an IC50 of 3.3 nM. For `COc1cc2ncnc(Oc3ccc(NC(=O)Nc4ccc(F)cc4F)c(F)c3)c2cc1OC` the value was 1.8 nM.

Regarding `COc1ccccc1NC(=O)Nc1ccc(Oc2ncnc3cc(OC)c(OC)cc23)cc1`, the IC50 is 1.2 nM. The same measure for `COc1cc2nccc(Oc3cc(C)c(NC(=O)Nc4cccc(F)c4OC)cc3C)c2cc1OC`: 4.9 nM; for `COc1ccccc1NC(=O)Nc1ccc(Oc2ncnc3cc(OC)c(OC)cc23)cc1C`: less than 1 nM. For `COc1cc2nccc(Oc3cc(C)c(NC(=O)Nc4ccc(F)cc4F)cc3C)c2cc1OC` the value was 2.3 nM. `COc1cc2ncnc(Oc3ccc(NC(=O)NCc4ccc(F)cc4F)c(Cl)c3)c2cc1OC` had an IC50 of 3.8 nM. The same measure for `CCCCNC(=O)Nc1ccc(Oc2ncnc3cc(OC)c(OC)cc23)cc1Cl`: 71 nM. As for `COCCOc1cc2nccc(Oc3cc(C)c(NC(=O)Nc4ccc(F)cc4F)cc3C)c2cc1OC`, the IC50 amounted to 5.1 nM. Compound `COc1cc2nccc(Oc3ccc(NC(=O)Nc4cccc(C)n4)c(C)c3C)c2cc1OC` yielded an IC50 of 3.7 nM. For `COc1cc2nccc(Oc3c(Cl)cc(NC(=O)Nc4ccc(F)cc4F)cc3Cl)c2cc1OC` the value was 4.3 nM; for `COc1cc2nccc(Oc3ccc(NC(=O)NCc4ccc(F)cc4F)c(F)c3)c2cc1OC`, 1.8 nM; for `COc1cc2nccc(Oc3ccc(NC(=O)Nc4ccc(F)cc4C)c(C)c3C)c2cc1OC`, 3.9 nM. `CCCCNC(=O)Nc1ccc(Oc2ncnc3cc(OC)c(OC)cc23)cc1C` displayed an IC50 of 53 nM.

The compound `COc1cc2nccc(Oc3ccc(NC(=O)Nc4cccc(F)c4OC)c(C)c3C)c2cc1OC` yielded an IC50 of 5.3 nM.

The compound `CCCNC(=O)Nc1ccc(Oc2ncnc3cc(OC)c(OC)cc23)cc1[N+](=O)[O-]` returned an IC50 of 10.2 nM.

Regarding `COc1cc2c(Oc3ccc(NC(=O)Nc4ccc(F)cc4F)c(F)c3)ccnc2cc1OCCN1CCOCC1`, the IC50 came to 0.5 nM.

In the case of `COCCOc1cc2nccc(Oc3ccc(NC(=O)Nc4ccc(F)cc4F)c(Cl)c3)c2cc1OC`, the IC50 amounted to 0.5 nM. Turning to `COc1cc2ncnc(Oc3ccc(NC(=O)NCc4ccc(F)cc4F)c(F)c3)c2cc1OC`, the IC50 was found to be 14 nM. The same measure for `COc1ccc(NC(=O)Nc2cc(C)c(Oc3ccnc4cc(OC)c(OC)cc34)cc2C)c(OC)n1`: 2 nM; for `COCCOc1cc2nccc(Oc3ccc(NC(=O)Nc4ccccc4OC)c(Cl)c3)c2cc1OC`: 2.8 nM; for `COc1cc2nccc(Oc3ccc(NC(=O)Nc4ccccc4C)c(C)c3C)c2cc1OC`: 2.5 nM. The same measure for `COc1ccccc1NC(=O)Nc1cc(C)c(Oc2ccnc3cc(OC)c(OC)cc23)cc1C`: 3.8 nM; for `COc1cc2ncnc(Oc3ccc(NC(=O)Nc4ccccc4C)c(F)c3)c2cc1OC`: 2.7 nM. On to `CCC(C)NC(=O)Nc1ccc(Oc2ccnc3cc(OC)c(OC)cc23)cc1F` (stereo not drawn), for which the IC50 came to 7.8 nM. `CCC(C)NC(=O)Nc1ccc(Oc2ncnc3cc(OC)c(OC)cc23)cc1Cl` (stereo not drawn): the IC50 was determined as 30 nM. `COc1cc2nccc(Oc3ccc(NC(=O)Nc4ccc(Br)cn4)c(Cl)c3)c2cc1OC` yielded an IC50 of 11 nM.

As for `COc1cc2nccc(Oc3ccc(NC(=O)Nc4ccc(F)cc4F)c(C)c3C)c2cc1OC`, the IC50 stood at 0.6 nM. `CCC(C)NC(=O)Nc1ccc(Oc2ncnc3cc(OC)c(OC)cc23)cc1` (stereo not drawn) displayed an IC50 of 345 nM.

With `COc1cc2ncnc(Oc3ccc(NC(=O)NCc4ccccn4)c(Cl)c3)c2cc1OC`, the IC50 is greater than 1000 nM.

In turn, `COc1cc2ncnc(Oc3ccc(NC(=O)Nc4ccc(F)cc4F)c(C)c3)c2cc1OC` yielded an IC50 of 5.3 nM. For `C#CCNC(=O)Nc1ccc(Oc2ncnc3cc(OC)c(OC)cc23)cc1` the value was 67 nM; for `COc1cc2nccc(Oc3ccc(NC(=O)Nc4ccc(C)cn4)c(Cl)c3)c2cc1OC`, 8.5 nM. `CCNC(=O)Nc1ccc(Oc2ncnc3cc(OC)c(OC)cc23)cc1Cl` gave an IC50 of 8 nM. `COc1cc2nccc(Oc3ccc(NC(=O)NCC(C)C)c(F)c3)c2cc1OC` showed an IC50 of 15 nM.

Compound `COc1ccccc1NC(=O)Nc1ccc(Oc2ccnc3cc(OC)c(OC)cc23)cc1Cl` had an IC50 of 0.6 nM.

In turn, `COc1cc2nccc(Oc3ccc(NC(=O)Nc4cccc(C)n4)c(Cl)c3)c2cc1OC` yielded an IC50 of 3.4 nM. For `COc1cc2nccc(Oc3cc(C)c(NC(=O)Nc4ccc(F)cc4C)cc3C)c2cc1OC` the value was 12 nM; for `CCCCCNC(=O)Nc1ccc(Oc2ncnc3cc(OC)c(OC)cc23)cc1Cl`, 4.1 nM; for `COc1cc2ncnc(Oc3ccc(NC(=O)Nc4ccc(F)cc4F)cc3C)c2cc1OC`, 8.8 nM. `CCCCNC(=O)Nc1ccc(Oc2ncnc3cc(OC)c(OC)cc23)cc1F` came in with an IC50 of 45 nM. As to `COc1cc2nccc(Oc3ccc(NC(=O)Nc4ccc(C)cn4)c(C)c3C)c2cc1OC`, the IC50 stood at 4.2 nM.

`COCCOc1cc2nccc(Oc3ccc(NC(=O)Nc4ccccc4OC)c(C)c3C)c2cc1OC` gave an IC50 of 6.5 nM.

Turning to `COc1cc2ncnc(Oc3ccc(NC(=O)Nc4ccc(F)cc4)cc3C)c2cc1OC`, the IC50 was determined as 5.2 nM. Compound `C=CCNC(=O)Nc1ccc(Oc2ncnc3cc(OC)c(OC)cc23)cc1Cl` returned an IC50 of 13 nM. For `COc1ccccc1NC(=O)Nc1ccc(Oc2ccnc3cc(OC)c(OC)cc23)c(C)c1C` the value was 1.7 nM; for `CCCCNC(=O)Nc1ccc(Oc2ncnc3cc(OC)c(OC)cc23)c(C)c1`, 450 nM; for `COc1ccccc1NC(=O)Nc1ccc(Oc2ncnc3cc(OC)c(OC)cc23)cc1F`, less than 1 nM. Turning to `COc1ccccc1NC(=O)Nc1cc(C)c(Oc2ccnc3cc(OCCN4CCOCC4)c(OC)cc23)cc1C`, the IC50 worked out at 5.9 nM. For `COc1cc2nccc(Oc3ccc(NC(=O)Nc4ccc(Br)cn4)c(C)c3C)c2cc1OC` the value was 4.4 nM; for `COc1cc2ncnc(Oc3ccc(NC(=O)Nc4ccc(Cl)cn4)c(Cl)c3)c2cc1OC`, 58 nM; for `COc1cc2nccc(Oc3ccc(NC(=O)Nc4ccccc4C)c(Cl)c3)c2cc1OC`, 0.6 nM.

Turning to `CCCNC(=O)Nc1ccc(Oc2ncnc3cc(OC)c(OC)cc23)cc1Cl`, the IC50 worked out at 16 nM.

For the compound `CCCNC(=O)Nc1ccc(Oc2ccnc3cc(OC)c(OC)cc23)cc1[N+](=O)[O-]`, the IC50 turned out to be 4 nM. `CCCCCNC(=O)Nc1ccc(Oc2ncnc3cc(OC)c(OC)cc23)cc1` registered an IC50 of 21 nM. As for `COCCOc1cc2nccc(Oc3ccc(NC(=O)Nc4ccc(F)cc4F)c(C)c3C)c2cc1OC`, the IC50 came out at 5.1 nM. For `CCCNC(=O)Nc1ccc(Oc2ncnc3cc(OC)c(OC)cc23)cc1C` the value was 150 nM. In the case of `COc1ccccc1NC(=O)Nc1ccc(Oc2ncnc3cc(OC)c(OC)cc23)cc1Cl`, the IC50 is 0.6 nM. `COc1cc2ncnc(Oc3ccc(NC(=O)Nc4ccc(F)cc4)c(Cl)c3)c2cc1OC` registered an IC50 of 0.7 nM.

As to `COc1cc2nccc(Oc3ccc(NC(=O)Nc4ccc(Cl)cn4)c(Cl)c3)c2cc1OC`, the IC50 was 2.9 nM. `CCCNC(=O)Nc1ccc(Oc2ccnc3cc(OC)c(OC)cc23)cc1F` gave an IC50 of 2.9 nM. For `COc1cc2nccc(Oc3ccc(NC(=O)Nc4ccc(F)cc4C)c(Cl)c3)c2cc1OC` the value was 0.7 nM; for `C=CCNC(=O)Nc1ccc(Oc2ccnc3cc(OC)c(OC)cc23)cc1F`, 2.1 nM. The same measure for `COc1cc2ncnc(Oc3ccc(NC(=O)NCc4ccccn4)cc3)c2cc1OC`: 750 nM; for `COc1ccc(NC(=O)Nc2cc(C)c(Oc3ccnc4cc(OC)c(OC)cc34)cc2C)cc1`: 4.3 nM. For `COc1cc2ncnc(Oc3ccc(NC(=O)Nc4ccc(F)cc4)c(C)c3)c2cc1OC` the value was 2.3 nM. `COc1cc2nccc(Oc3cc(C)c(NC(=O)Nc4ccccc4C)cc3C)c2cc1OC`: the IC50 was found to be 5.9 nM.

`CCC(C)NC(=O)Nc1ccc(Oc2ncnc3cc(OC)c(OC)cc23)cc1F` (stereo not drawn) displayed an IC50 of 42 nM. For `COc1cc2ncnc(Oc3ccc(NC(=O)Nc4ccccc4C)cc3)c2cc1OC` the value was 6 nM. Turning to `COc1cc2nccc(Oc3ccc(NC(=O)Nc4ccc(F)cc4F)c([N+](=O)[O-])c3)c2cc1OC`, the IC50 stood at 0.5 nM.
